In US12371454B2, “Cyclic peptide compound having Kras inhibitory action” (priority 2019, dated 2025):
Starred links: 1 amine or outer side, 2 acyl side, 3 side chain; linkers in the order of their positions; H or OH if unused. Positions of bridges follow the written chain, without caps; N, C: chain ends. Non-standard residues stand in square brackets, D forms with d. Residues, ends and D or L forms follow the SMILES beside them. *: point of attachment. hPhe(3-Cl-4-CF3) = N[C@@H](CCc1ccc(C(F)(F)F)c(Cl)c1)C(=O)O; X38 = CN([C@@H](Cc1cccc(OC(F)(F)F)c1)C(=O)[*:2])[*:1]; X23 = CN([C@@H](Cc1ccccc1OC(F)(F)F)C(=O)[*:2])[*:1]; NMePhe(3-Br) = CN[C@@H](Cc1cccc(Br)c1)C(=O)O; NMePhe(2-Cl) = CN[C@@H](Cc1ccccc1Cl)C(=O)O; NMedβ3hAla = C[C@H](CC(=O)[*:2])N(C)[*:1]; NMeCha = CN[C@@H](CC1CCCCC1)C(=O)O; NMeChg = CN[C@H](C(=O)O)C1CCCCC1; NMeD = CN[C@@H](CC(=O)O)C(=O)O; NMeL = CN[C@@H](CC(C)C)C(=O)O; NMeV = CN[C@H](C(=O)O)C(C)C; Piperidide = C1CCN(*)CC1; Ac5c = NC1(C(=O)O)CCCC1; Sar = CNCC(=O)O

How the values were obtained:
[1] = target: T1, Kras and SOS1 (biotin-tagged human Kras loaded with GDP, His-tagged human SOS1) (Homo sapiens, UniProt P01116, G12D); experiment: Protein-protein interaction inhibition between Kras and SOS1 (KrasGl2D-SOS PPI) using AlphaScreen; format: binding; settings: AlphaScreen; biotin-tagged human Kras loaded with GDP, His-tagged human SOS1; read-out: KRAS G12D-SOS PPI IC50
T1 construct: made in house; host or cells: E. coli (stated for Kras only)
T1 sequence (P01116 1-188 isoform P01116-2 G12D): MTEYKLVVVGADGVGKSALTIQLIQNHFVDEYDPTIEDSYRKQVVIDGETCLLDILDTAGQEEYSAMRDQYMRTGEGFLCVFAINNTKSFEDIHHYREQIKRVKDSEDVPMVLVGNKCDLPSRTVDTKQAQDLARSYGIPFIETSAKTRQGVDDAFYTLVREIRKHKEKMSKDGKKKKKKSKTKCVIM
Method in brief: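 Read-out is acceptor-bead light at 520-620 nm, arising when 680 nm-irradiated nickel donor beads pass singlet oxygen to streptavidin acceptors. The bead pair links His-tagged SOS1 with biotin-tagged, GDP-bound Kras from E. coli.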

[2] = tested on: Human pancreatic cancer cell line AsPC-1; experiment: Measurement of AsPC-1 cell growth inhibition (AsPC-1 CGI); format: cell-based; settings: 96 h
Method in brief: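 AsPC-1 cells in 15% FBS RPMI-1640 were exposed to test compound for 96 hours at 37° C, with CellTiter-Glo as endpoint.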

Row | Compound | IC50 [1] [nM] | IC50 [2] [nM]
1 | CC[C@H](C)[C@@H]1NC(=O)[C@H](CC(C)C)N(C)C(=O)C[C@@H](C(=O)N2CCCCC2)N(C)C(=O)[C@H](C(C)C)N(C)C(=O)C2(CCCC2)NC(=O)[C@@H]2CCCN2C(=O)[C@H](CCc2ccc(C(F)(F)F)c(Cl)c2)NC(=O)CN(C)C(=O)[C@H](Cc2ccccc2Cl)N(C)C(=O)CN(C)C(=O)CN(C)C1=O [Compound 1636] ([NMeL]I[Sar][Sar][NMePhe(2-Cl)][Sar][hPhe(3-Cl-4-CF3)]P[Ac5c][NMeV][NMeD]-Piperidide; lactam N-11) | 11 | 100 to 500
2 | CC[C@H](C)[C@@H]1NC(=O)[C@H](CC(C)C)N(C)C(=O)C[C@@H](C)N(C)C(=O)[C@H](C(C)C)N(C)C(=O)C2(CCCC2)NC(=O)[C@@H]2CCCN2C(=O)[C@H](CCc2ccc(C(F)(F)F)c(Cl)c2)NC(=O)CN(C)C(=O)[C@H](Cc2cccc(OC(F)(F)F)c2)N(C)C(=O)CN(C)C(=O)CN(C)C1=O [Compound 1637] (cyclo([Ac5c][NMeV][NMedβ3hAla][NMeL]I[Sar][Sar][X38][Sar][hPhe(3-Cl-4-CF3)]P)) | 17 | 50 to 100
3 | CC[C@H](C)[C@@H]1NC(=O)[C@H](CC(C)C)N(C)C(=O)C[C@@H](C(=O)N2CCCCC2)N(C)C(=O)[C@H](C(C)C)N(C)C(=O)C2(CCCC2)NC(=O)[C@@H]2CCCN2C(=O)[C@H](CCc2ccc(C(F)(F)F)c(Cl)c2)NC(=O)CN(C)C(=O)[C@H](Cc2cccc(OC(F)(F)F)c2)N(C)C(=O)CN(C)C(=O)CN(C)C1=O [Compound 1640] ([NMeL]I[Sar][Sar][X38][Sar][hPhe(3-Cl-4-CF3)]P[Ac5c][NMeV][NMeD]-Piperidide; lactam N-11) | 6.6 | 100 to 500
4 | CC[C@H](C)[C@@H]1NC(=O)[C@H](CC(C)C)N(C)C(=O)C[C@@H](C(=O)N2CCCCC2)N(C)C(=O)[C@H](C(C)C)N(C)C(=O)C2(CCCC2)NC(=O)[C@@H]2CCCN2C(=O)[C@H](CCc2ccc(C(F)(F)F)c(Cl)c2)NC(=O)CN(C)C(=O)[C@H](Cc2ccccc2OC(F)(F)F)N(C)C(=O)CN(C)C(=O)CN(C)C1=O [Compound 1641] ([NMeL]I[Sar][Sar][X23][Sar][hPhe(3-Cl-4-CF3)]P[Ac5c][NMeV][NMeD]-Piperidide; lactam N-11) | 8.3 | 100 to 500
5 | CC[C@H](C)[C@@H]1NC(=O)[C@H](CC(C)C)N(C)C(=O)C[C@@H](C(=O)N2CCCCC2)N(C)C(=O)[C@H](C(C)C)N(C)C(=O)C2(CCCC2)NC(=O)[C@@H]2CCCN2C(=O)[C@H](CCc2ccc(C(F)(F)F)c(Cl)c2)NC(=O)CN(C)C(=O)[C@H](Cc2cccc(Br)c2)N(C)C(=O)CN(C)C(=O)CN(C)C1=O [Compound 1643] ([NMeL]I[Sar][Sar][NMePhe(3-Br)][Sar][hPhe(3-Cl-4-CF3)]P[Ac5c][NMeV][NMeD]-Piperidide; lactam N-11) | 7.2 | 100 to 500
6 | CC(C)C[C@@H]1NC(=O)[C@H](CC(C)C)N(C)C(=O)C[C@@H](C(=O)N2CCCCC2)N(C)C(=O)[C@H](C2CCCCC2)N(C)C(=O)C2(CCCC2)NC(=O)[C@@H]2CCCN2C(=O)[C@H](CCc2ccc(C(F)(F)F)c(Cl)c2)NC(=O)CN(C)C(=O)[C@H](CC2CCCCC2)N(C)C(=O)CN(C)C(=O)CN(C)C1=O [Compound 1650] ([NMeL]L[Sar][Sar][NMeCha][Sar][hPhe(3-Cl-4-CF3)]P[Ac5c][NMeChg][NMeD]-Piperidide; lactam N-11) | 2.6 | 100 to 500
7 | CC[C@H](C)[C@@H]1NC(=O)[C@H](CC(C)C)N(C)C(=O)C[C@@H](C(=O)N2CCCCC2)N(C)C(=O)[C@H](C2CCCCC2)N(C)C(=O)C2(CCCC2)NC(=O)[C@@H]2CCCN2C(=O)[C@H](CCc2ccc(C(F)(F)F)c(Cl)c2)NC(=O)CN(C)C(=O)[C@H](CC(C)C)N(C)C(=O)CN(C)C(=O)CN(C)C1=O [Compound 1652] ([NMeL]I[Sar][Sar][NMeL][Sar][hPhe(3-Cl-4-CF3)]P[Ac5c][NMeChg][NMeD]-Piperidide; lactam N-11) | 3.1 | 100 to 500
